Patent US20230372318A1, “METHODS FOR TREATING A SUBJECT HAVING MULTIPLE SYSTEM ATROPHY” (Theravance Biopharma R&D IP, LLC, priority 2022, published 2023)

Experiments:
human recombinant DAT = target: T1, human recombinant DAT (Homo sapiens, UniProt Q01959); assay: Neurotransmitter uptake inhibition, [3H]-DA, hDAT cells; format: cell-based; conditions: mean, 3 to 9 experiments
T1 construct: expressed in transfected cells; host or cells: CHO-K1
Description: The in vitro pharmacology of ampreloxetine at human recombinant and rat native monoamine transporters was characterized as described in Smith et al., Inter. J. Neuropsychopharmcol. (2015) 1-11; and Tsuruda et al., J. Pharmacol. Toxicol. Meth. (2010) 61:192-204. See also, e.g., U.S. Pat. Nos. 8,304,432 B2 and 8,304,433 B2. Radioligands were sourced commercially (Perkin Elmer LifeSciences or GE Healthcare Life Sciences).
Briefly, membranes prepared from HEK293 (Human Embryonic Kidney 293) or CHO-K1 (Chinese Hamster Ovary-K1) cells stably transfected with human recombinant SERT (HEK293-hSERT), NET (HEK293-hNET), or DAT (CHO-K1-hDAT) were incubated for 1 hr at 22° C. in the absence, or presence, of 4-[2-(2,4,6-trifluorophenoxymethyl)phenyl]piperidine and [^3H]-citalopram (1.0 nM) for SERT, [^3H]-nisoxetine (2.0 nM) for NET, and [^3H]-WIN35428 (3.0 nM) for DAT in 50 mM Tris-HCl, 120 mM NaCl, 5 mM KCl, 0.025% BSA, 100 μM ascorbic acid, pH 7.4. Rat cortical membrane preparations were incubated with [^3H]-citalopram (2.0 nM) for SERT or [^3H]-nisoxetine (4.0 nM) for NET for 1 hr at 22° C. […] Binding and uptake assays were terminated by rapid filtration and radioactivity determined by liquid scintillation spectroscopy. […] Selectivity for NET (rounded to one significant figure) was determined as follows: […]

plasma protein = assay: Plasma protein binding, rat; format: in vitro ADME
[1] = test system: heart rate (HR) and mean arterial pressure (MAP); assay: Cardiovascular model in anesthetized rat: intrinsic effect on MAP and HR; format: in vivo; conditions: anesthetized rats
Description: These studies were conducted to assess the effect of a single administration of ampreloxetine on heart rate (HR) and mean arterial pressure (MAP) in anesthetized rats. Using this cardiovascular model, the intrinsic effect on HR and the inhibition of tyramine pressor response were evaluated as surrogate measures that reflect the ability of ampreloxetine to inhibit norepinephrine transporters in the periphery.
Normotensive male Sprague-Dawley rats weighing between 250-350 g were anesthetized with an intraperitoneal injection (IP) of thiobutabarbital (Inactin). All animals were kept under complete anesthesia (i.e., absence of response to toe pinch test) for the surgery and for the duration of the study. The right common carotid artery and jugular vein were isolated and catheterized. The trachea was intubated to keep the airway open during the study. After completion of surgery, the arterial catheter was connected to a pressure transducer and baseline blood pressure [Systolic (SBP), Mean Arterial (MAP) and Diastolic (DBP)] and heart rate (HR) were recorded using the Notocord-HEM data acquisition system. Following at least 60 min of baseline (i.e., the last 10 min was stable), vehicle (10% Tween20, 2 mL/kg, IP) was administered and any potential effect was monitored for at least 10 min. After this period, rats were injected with either vehicle or ampreloxetine ([…], 2 mL/kg, IP) and changes in MAP and HR were monitored for 25 min. Rats were then challenged intravenously via the jugular vein catheter, with non-cumulative bolus doses of tyramine (0.03, 0.1, 0.3, and 1 mg/kg, 1 mL/kg, IV) given at 5 min intervals. After the last dose of tyramine, data acquisition continued for another 10 min before the experiment was terminated. In a separate group of animals, blood was collected to assess the concentration of ampreloxetine in plasma at 15 min and 60 min after dosing. Free plasma concentrations obtained from 15 min were used to construct the concentration response curve (CRC) to MAP and HR while concentrations from 60 min were used for the tyramine CRC. Animals were euthanized by carbon dioxide asphyxiation followed by thoracotomy.
Intrinsic hemodynamic effects were reported as the maximum change in MAP or HR induced by ampreloxetine before tyramine challenge. Inhibition of tyramine effect was normalized to the response to 1 mg/kg dose of tyramine in the vehicle control group. Concentration response curves (CRCs) of the change in MAP, HR and inhibition of tyramine response were analyzed through iterative curve fitting to a logistic equation using Prism 5.00™ (GraphPad, Inc.). The equation used was as follows:
Y=(Bottom+Top−Bottom)/(1+10^((Log EC50−X)*HillSlope)) […]

T1 sequence (Q01959 whole entry): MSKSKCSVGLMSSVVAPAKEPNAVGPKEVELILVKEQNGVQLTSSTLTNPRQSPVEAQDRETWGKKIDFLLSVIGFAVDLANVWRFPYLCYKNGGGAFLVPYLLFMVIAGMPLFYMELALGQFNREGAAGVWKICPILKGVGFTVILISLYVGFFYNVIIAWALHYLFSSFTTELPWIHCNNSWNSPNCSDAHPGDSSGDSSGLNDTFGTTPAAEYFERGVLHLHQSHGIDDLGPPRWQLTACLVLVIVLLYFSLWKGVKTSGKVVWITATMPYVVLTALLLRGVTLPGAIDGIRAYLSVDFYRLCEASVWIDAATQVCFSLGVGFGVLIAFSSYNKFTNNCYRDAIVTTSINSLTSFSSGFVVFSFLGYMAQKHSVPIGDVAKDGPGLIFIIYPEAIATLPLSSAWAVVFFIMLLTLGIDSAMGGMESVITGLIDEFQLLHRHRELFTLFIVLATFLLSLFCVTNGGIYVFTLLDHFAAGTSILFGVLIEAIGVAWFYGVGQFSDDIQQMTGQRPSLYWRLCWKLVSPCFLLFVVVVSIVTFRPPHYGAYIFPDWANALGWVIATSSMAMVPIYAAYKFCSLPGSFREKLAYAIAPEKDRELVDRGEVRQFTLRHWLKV

Q: For `Fc1cc(F)c(OCc2ccccc2C2CCNCC2)c(F)c1` [Ampreloxetine, 4-[2-(2,4,6-trifluorophenoxymethyl)phenyl]piperidine], which “Neurotransmitter Uptake Inhibition: pIC50, DAT” value (human recombinant DAT) is on record?
A: 6.8

Q: And the Plasma protein binding (plasma protein)?
A: 90.2%

Q: And the “Effect on MAP and HR” value ([1]; 0.01-30 mg/kg IP)?
A: dose dependently increased MAP and HR

Q: What about the “Maximum change in HR” value ([1]; 0.01-30 mg/kg IP) of the same compound?
A: 28.1 (22.4-33.7) bpm

Q: What about the “Maximum change in MAP” value ([1]; 0.01-30 mg/kg IP) of the same compound?
A: 13.2 (4.4-22.1) mm Hg

Q: What about the “HR potency (HR EC25), free plasma concentration giving 25 bpm change in HR” value ([1]; IP, free plasma concentration at 15 min) of the same compound?
A: 8.6 nM
